Experiments:
[1] = system: Rabbit Reticulocyte Lysate; experiment: In vitro screening in rabbit reticulocyte lysates, luciferase mRNA translation; assay type: biochemical; conditions: 250 ng luciferase mRNA, 60 minutes, 30° C.
Procedure: The diluted luciferase was added to 40 ul of freshly prepared Rabbit Reticulocyte Lysate and the in vitro translation reaction was done in a standard 1.5 mL polypropylene reaction tube (Thermo Fisher Scientific, Waltham, Mass.) at 30° C. in a dry heating block. The translation assay was done with the Rabbit Reticulocyte Lysate (nuclease-treated) kit (Promega, Madison, Wis.) according to the manufacturer's instructions. The reaction buffer was supplemented with a one-to-one blend of provided amino acid stock solutions devoid of either Leucine or Methionine resulting in a reaction mix containing sufficient amounts of both amino acids to allow effective in vitro translation.
After 60 minutes of incubation, the reaction was stopped by placing the reaction tubes on ice. Aliquots of the in vitro translation reaction containing luciferase modified RNA were transferred to white opaque polystyrene 96-well plates (Corning, Manassas, Va.) and combined with 100 ul complete luciferase assay solution (Promega, Madison, Wis.). The volumes of the in vitro translation reactions were adjusted or diluted until no more than 2 mio relative light units (RLUs) per well were detected for the strongest signal producing samples and the RLUs for each chemistry tested are shown in Table 20. The plate reader was a BioTek Synergy H1 (BioTek, Winooski, Vt.). The background signal of the plates without reagent was about 200 relative light units per well.

HeLa cells [2] = experiment: In vitro screening in HeLa cells, luciferase modified RNA; assay type: cell-based, human; parameters: key to Protein (Luc; HeLa): the protein production of HeLa is judged by “+,” “+1-” and “−”; the protein production of HeLa is judged by “+,” “+1-” and “−”; the protein production of HeLa is judged by “+,” “+1-” and “−”; conditions: for RLU: HeLa cells, 83 ng luciferase modified RNA, 18 to 22 hours
Procedure: The day before transfection, 20,000 HeLa cells (ATCC no. CCL-2; Manassas, Va.) were harvested by treatment with Trypsin-EDTA solution (LifeTechnologies, Grand Island, N.Y.) and seeded in a total volume of 100 ul EMEM medium (supplemented with 10% FCS and 1× Glutamax) per well in a 96-well cell culture plate (Corning, Manassas, Va.). The cells were grown at […] in 5% CO2 atmosphere overnight. […] Lipofectamine 2000 (LifeTechnologies, Grand Island, N.Y.) was used as transfection reagent and 0.2 ul were diluted in 10 ul final volume of OPTI-MEM. After 5 minutes of incubation at room temperature, both solutions were combined and incubated an additional 15 minute at room temperature. Then the 20 ul combined solution was added to the 100 ul cell culture medium containing the HeLa cells and incubated at room temperature.
After 18 to 22 hours of incubation cells expressing luciferase were lysed with 100 ul of Passive Lysis Buffer (Promega, Madison, Wis.) according to manufacturer instructions. Aliquots of the lysates were transferred to white opaque polystyrene 96-well plates (Corning, Manassas, Va.) and combined with 100 ul complete luciferase assay solution (Promega, Madison, Wis.). The lysate volumes were adjusted or diluted until no more than 2 mio relative light units (RLU) per well were detected for the strongest signal producing samples and the RLUs for each chemistry tested are shown in Table 19. The plate reader was a BioTek Synergy H1 (BioTek, Winooski, Vt.). The background signal of the plates without reagent was about 200 relative light units per well.

[3] = system: peripheral blood mononuclear cells (PBMC); experiment: In vitro screening in PBMC: G-CSF protein expression by ELISA; assay type: cell-based, human; conditions: Table 30, non-naturally occurring chemistries; G-CSF modified mRNA in PBMC; background about 110 pg/ml
Excerpt: (§1) The supernatant was harvested and stored frozen until analyzed by ELISA to determine the G-CSF protein expression, and the induction of the cytokines interferon-alpha (IFN-α) and tumor necrosis factor alpha (TNF-α).

HeLa cells [4] = experiment: G-CSF modified mRNA transfected in HeLa cells, G-CSF ELISA; assay type: cell-based, human; parameters: key to Protein (G-CSF; HeLa): the protein production of HeLa is judged by “+,” “+1-” and “−”; the protein production of HeLa is judged by “+,” “+1-” and “−”; the protein production of HeLa is judged by “+,” “+1-” and “−”
Procedure: To assess the activity of all our different chemical modifications in the context of a second open reading frame, we replicated experiments previously conducted using luciferase mRNA, with human G-CSF mRNA. […] The mutant T7 polymerase was obtained commercially (Durascribe® T7 Transcription kit (Cat. No. DS010925) (Epicentre®, Madison, Wis.).
The modified RNA in Tables 27 and 28 were transfected in vitro in HeLa cells or added to rabbit reticulysates (250 ng of modified mRNA) as indicated. […] In Table 27, “NT” means not tested.

interferon-alpha (IFN-α) = experiment: In vitro screening in PBMC: interferon-alpha induction by ELISA; assay type: cell-based, human
Excerpt: as §1

[5] = system: peripheral blood mononuclear cells (PBMC); experiment: In vitro PBMC study, percent modification: G-CSF expression by ELISA; assay type: cell-based, human; conditions: for G-CSF Expression: 22 hours after transfection
Procedure: 480 ng of G-CSF mRNA modified with 5-methylcytosine (5mC) and pseudouridine (pseudoU) or unmodified G-CSF mRNA was transfected with 0.4 uL of Lipofectamine 2000 into peripheral blood mononuclear cells (PBMC) from three normal blood donors (D1, D2, and D3). […] The supernatant was harvested and run by ELISA 22 hours after transfection to determine the protein expression. The expression of IFN-alpha and TNF-alpha may be a secondary effect from the transfection of the G-CSF mRNA.

TNF-alpha = experiment: In vitro PBMC study, percent modification: TNF-alpha expression by ELISA; assay type: cell-based, human
Procedure: (§2) The supernatant was harvested and run by ELISA 22 hours after transfection to determine the protein expression.

IFN-alpha = experiment: In vitro PBMC study, percent modification: IFN-alpha expression by ELISA; assay type: cell-based, human
Procedure: as §2

[6] = Table 30, non-naturally occurring chemistries, G-CSF modified mRNA in HeLa
[7] = Table 30, non-naturally occurring chemistries, IFN-alpha from G-CSF modified mRNA in PBMC, background about 70 pg/ml
[8] = Table 30, non-naturally occurring chemistries, luciferase modified mRNA in HeLa, ** = second result, IVT with mutant T7 polymerase
[9] = PBMC donor D1, 22 hours after transfection
[10] = PBMC donor D2, 22 hours after transfection
[11] = PBMC donor D3, 22 hours after transfection
[12] = PBMC, protein/cytokine ratio from averages

5 (2 carbovinyl) uridine: Luciferase mRNA (SEQ ID NO: 409) modified with 5 (2 carbovinyl) uridine
RLU [1]: 225 RLU | RLU (HeLa cells [2]): 531 RLU

5 (3-1E propenyl Amino) uridine: Luciferase mRNA (SEQ ID NO: 409) modified with 5 (3-1E propenyl Amino) uridine
RLU [1]: 211 RLU | RLU (HeLa cells [2]): 446 RLU

5-Br-Uridine [Compound 5-Br-Uridine]
Protein (G-CSF; PBMC) [3]: + (“+” means greater than 300 pg/ml G-CSF) | Protein (G-CSF; HeLa) (HeLa cells [4]; [6]): + | Cytokines (G-CSF; PBMC) (interferon-alpha (IFN-α); [7]): + (“+” means greater than 100 pg/ml IFN-alpha) | Protein (Luc; HeLa) (HeLa cells [2]; [8]): +

COC(=O)C=Cc1cn([C@@H]2O[C@H](CO)[C@@H](O)[C@H]2O)c(=O)[nH]c1=O [5-(2-carbomethoxyvinyl) Uridine]
Protein (G-CSF; HeLa) (HeLa cells [4]; [6]): − | Cytokines (G-CSF; PBMC) (interferon-alpha (IFN-α); [7]): − (“−” means less than 100 pg/ml) | Protein (Luc; HeLa) (HeLa cells [2]; [8]): −

N4-acetylcytidine (ac4c): Luciferase mRNA (SEQ ID NO: 409) modified with N4-acetylcytidine
RLU [1]: 60,879 RLU | RLU (HeLa cells [2]): 235,412 RLU

2′-F-adenosine
Protein (Luc; HeLa) (HeLa cells [2]; [8]): −**

N^6-methyladenosine (m^6A)
Protein (G-CSF; HeLa) (HeLa cells [4]; summary grade, G-CSF mRNA in HeLa): − | Cytokines (G-CSF; PBMC) (interferon-alpha (IFN-α); summary grade, IFN-alpha, G-CSF mRNA in PBMC): ++++ (“++++” means greater than 1,000 pg/ml interferon-alpha (IFN-alpha)) | Protein (Luc; HeLa) (HeLa cells [2]; summary grade, luciferase mRNA in HeLa): −

N6-methyladenosine (m6a): Luciferase mRNA (SEQ ID NO: 409) modified with N6-methyladenosine
RLU [1]: 398 RLU | RLU (HeLa cells [2]): 534 RLU

B1: 25% modification: G-CSF mRNA (SEQ ID NO: 408) partially modified with 5mC and pseudoU, 25% modification (nucleic acid)
chain: GGGAAAUAAGAGAGAAAAGAAGAGUAAGAAGAAAUAUAAGAGCCACCAUGGCCGGUCCCGCGACCCAAAGCCCCAUGAAACUUAUGGCCCUGCAGUUGCUGCUUUGGCACUCGGCCCUCUGGACAGUCCAAGAAGCGACUCCUCUCGGACCUGCCUCAUCGUUGCCGCAGUCAUUCCUUUUGAAGUGUCUGGAGCAGGUGCGAAAGAUUCAGGGCGAUGGAGCCGCACUCCAAGAGAAGCUCUGCGCGACAUACAAACUUUGCCAUCCCGAGGAGCUCGUACUGCUCGGGCACAGCUUGGGGAUUCCCUGGGCUCCUCUCUCGUCCUGUCCGUCGCAGGCUUUGCAGUUGGCAGGGUGCCUUUCCCAGCUCCACUCCGGUUUGUUCUUGUAUCAGGGACUGCUGCAAGCCCUUGAGGGAAUCUCGCCAGAAUUGGGCCCGACGCUGGACACGUUGCAGCUCGACGUGGCGGAUUUCGCAACAACCAUCUGGCAGCAGAUGGAGGAACUGGGGAUGGCACCCGCGCUGCAGCCCACGCAGGGGGCAAUGCCGGCCUUUGCGUCCGCGUUUCAGCGCAGGGCGGGUGGAGUCCUCGUAGCGAGCCACCUUCAAUCAUUUUUGGAAGUCUCGUACCGGGUGCUGAGACAUCUUGCGCAGCCGUGAAGCGCUGCCUUCUGCGGGGCUUGCCUUCUGGCCAUGCCCUUCUUCUCUCCCUUGCACCUGUACCUCUUGGUCUUUGAAUAAAGCCUGAGUAGGAAG
modifications: 25% 5mC and pseudoU modification; Description of Artificial Sequence: Synthetic Transcript Sequence
G-CSF Expression ([5]; PBMC donor D1, 480 ng mRNA): 139.3 pg/mL | G-CSF Expression ([5]; PBMC donor D2, 480 ng mRNA): 126.9 pg/mL | G-CSF Expression ([5]; PBMC donor D3, 480 ng mRNA): 102.0 pg/mL | Average G-CSF ([5]; PBMC, average of three donors): 122 pg/mL | TNF-alpha Expression (TNF-alpha; [9]): 85.6 pg/mL | TNF-alpha Expression (TNF-alpha; [10]): 26.6 pg/mL | TNF-alpha Expression (TNF-alpha; [11]): 19.8 pg/mL | Average TNF-a (TNF-alpha; PBMC, average of three donors): 44 pg/mL | G-CSF/TNF-alpha (PC ratio) (TNF-alpha; [12]): 2.8 | IFN-alpha Expression (IFN-alpha; [9]): 564.3 pg/mL | IFN-alpha Expression (IFN-alpha; [10]): 400.4 pg/mL | IFN-alpha Expression (IFN-alpha; [11]): 670.7 pg/mL | Average IFN-a (IFN-alpha; PBMC, average of three donors): 545 pg/mL | G-CSF/IFN-alpha (PC ratio) (IFN-alpha; [12]): 0.2

B2: 2′Fluoroguanine triphosphate/pseudouridine: G-CSF mRNA (SEQ ID NO: 408) fully modified with the named combination (nucleic acid)
chain: GGGAAAUAAGAGAGAAAAGAAGAGUAAGAAGAAAUAUAAGAGCCACCAUGGCCGGUCCCGCGACCCAAAGCCCCAUGAAACUUAUGGCCCUGCAGUUGCUGCUUUGGCACUCGGCCCUCUGGACAGUCCAAGAAGCGACUCCUCUCGGACCUGCCUCAUCGUUGCCGCAGUCAUUCCUUUUGAAGUGUCUGGAGCAGGUGCGAAAGAUUCAGGGCGAUGGAGCCGCACUCCAAGAGAAGCUCUGCGCGACAUACAAACUUUGCCAUCCCGAGGAGCUCGUACUGCUCGGGCACAGCUUGGGGAUUCCCUGGGCUCCUCUCUCGUCCUGUCCGUCGCAGGCUUUGCAGUUGGCAGGGUGCCUUUCCCAGCUCCACUCCGGUUUGUUCUUGUAUCAGGGACUGCUGCAAGCCCUUGAGGGAAUCUCGCCAGAAUUGGGCCCGACGCUGGACACGUUGCAGCUCGACGUGGCGGAUUUCGCAACAACCAUCUGGCAGCAGAUGGAGGAACUGGGGAUGGCACCCGCGCUGCAGCCCACGCAGGGGGCAAUGCCGGCCUUUGCGUCCGCGUUUCAGCGCAGGGCGGGUGGAGUCCUCGUAGCGAGCCACCUUCAAUCAUUUUUGGAAGUCUCGUACCGGGUGCUGAGACAUCUUGCGCAGCCGUGAAGCGCUGCCUUCUGCGGGGCUUGCCUUCUGGCCAUGCCCUUCUUCUCUCCCUUGCACCUGUACCUCUUGGUCUUUGAAUAAAGCCUGAGUAGGAAG
modifications: 2'-fluoroguanine/pseudouridine modified; Description of Artificial Sequence: Synthetic Transcript Sequence
G-CSF protein (pg/ml) HeLa cells (HeLa cells [4]; HeLa cells, combination chemistries, ELISA): 1,136 pg/ml
